Results: ChEMBL document CHEMBL3991601, “The target landscape of clinical kinase drugs” (Science, 2017)
Active and inactive are the calls of the source. Cut-off read from the data, not from the text of the source, for most assays here: actives have a measured Kd and inactives only a lower limit.

How the values were obtained:
Ephrin type-A receptor 1 = target: T1, Ephrin type-A receptor 1 (Homo sapiens, UniProt P21709)
T1 sequence (P21709 whole entry): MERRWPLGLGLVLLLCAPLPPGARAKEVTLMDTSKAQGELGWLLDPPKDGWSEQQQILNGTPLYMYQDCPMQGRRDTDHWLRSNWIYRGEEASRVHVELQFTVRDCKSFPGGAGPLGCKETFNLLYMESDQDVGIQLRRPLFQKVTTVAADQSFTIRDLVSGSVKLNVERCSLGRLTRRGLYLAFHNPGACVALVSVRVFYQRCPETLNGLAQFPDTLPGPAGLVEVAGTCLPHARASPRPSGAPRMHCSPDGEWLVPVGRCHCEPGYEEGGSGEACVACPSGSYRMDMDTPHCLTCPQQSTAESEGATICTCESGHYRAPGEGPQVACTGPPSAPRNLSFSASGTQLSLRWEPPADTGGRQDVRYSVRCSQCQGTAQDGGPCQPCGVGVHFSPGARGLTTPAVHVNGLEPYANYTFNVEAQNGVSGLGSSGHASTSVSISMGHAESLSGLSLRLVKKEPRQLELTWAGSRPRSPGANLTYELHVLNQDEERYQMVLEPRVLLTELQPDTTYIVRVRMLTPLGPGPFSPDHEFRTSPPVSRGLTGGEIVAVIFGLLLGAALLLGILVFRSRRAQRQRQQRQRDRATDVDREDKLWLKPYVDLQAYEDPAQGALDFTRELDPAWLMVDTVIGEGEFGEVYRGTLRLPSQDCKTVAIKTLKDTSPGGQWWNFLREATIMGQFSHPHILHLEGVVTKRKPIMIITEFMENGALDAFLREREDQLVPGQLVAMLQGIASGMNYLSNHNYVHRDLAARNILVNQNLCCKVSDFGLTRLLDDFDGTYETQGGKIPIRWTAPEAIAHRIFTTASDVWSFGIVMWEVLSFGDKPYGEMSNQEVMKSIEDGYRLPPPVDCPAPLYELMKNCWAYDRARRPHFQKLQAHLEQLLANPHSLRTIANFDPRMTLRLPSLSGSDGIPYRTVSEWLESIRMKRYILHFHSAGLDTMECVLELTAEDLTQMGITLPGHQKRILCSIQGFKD

[1] = target: Glycogen synthase kinase-3 beta (Homo sapiens, UniProt P49841)
[2] = target: T2, MAP/microtubule affinity-regulating kinase 4 (Homo sapiens, UniProt Q96L34)
T2 sequence (Q96L34 whole entry): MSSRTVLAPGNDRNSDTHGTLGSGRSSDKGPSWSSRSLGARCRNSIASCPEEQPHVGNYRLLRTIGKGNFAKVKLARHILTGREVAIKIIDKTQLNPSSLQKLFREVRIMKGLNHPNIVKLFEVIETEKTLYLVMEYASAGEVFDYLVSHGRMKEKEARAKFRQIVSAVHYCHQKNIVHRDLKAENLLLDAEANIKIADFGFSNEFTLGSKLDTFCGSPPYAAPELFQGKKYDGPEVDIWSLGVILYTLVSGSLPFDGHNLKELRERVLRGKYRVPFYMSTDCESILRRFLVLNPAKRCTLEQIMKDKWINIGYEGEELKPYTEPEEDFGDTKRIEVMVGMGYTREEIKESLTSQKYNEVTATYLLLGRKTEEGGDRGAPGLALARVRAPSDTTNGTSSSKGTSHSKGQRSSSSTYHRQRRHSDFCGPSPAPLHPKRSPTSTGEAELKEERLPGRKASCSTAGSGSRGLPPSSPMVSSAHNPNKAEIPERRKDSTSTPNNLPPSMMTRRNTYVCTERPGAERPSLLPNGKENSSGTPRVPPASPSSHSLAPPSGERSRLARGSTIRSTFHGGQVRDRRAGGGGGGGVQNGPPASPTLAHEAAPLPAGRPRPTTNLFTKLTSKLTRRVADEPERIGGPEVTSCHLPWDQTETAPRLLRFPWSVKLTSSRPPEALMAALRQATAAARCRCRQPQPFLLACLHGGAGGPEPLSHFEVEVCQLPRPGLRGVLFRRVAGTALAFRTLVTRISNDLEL

[3] = target: Serine/threonine-protein kinase PLK1 (Homo sapiens, UniProt P53350)
Misshapen-like kinase 1 = Misshapen-like kinase 1 (Homo sapiens, UniProt Q8N4C8)
Note: in the data inactive means no Kd found up to 30 µM.

Glycogen synthase kinase-3 beta, sequence (P49841 whole entry): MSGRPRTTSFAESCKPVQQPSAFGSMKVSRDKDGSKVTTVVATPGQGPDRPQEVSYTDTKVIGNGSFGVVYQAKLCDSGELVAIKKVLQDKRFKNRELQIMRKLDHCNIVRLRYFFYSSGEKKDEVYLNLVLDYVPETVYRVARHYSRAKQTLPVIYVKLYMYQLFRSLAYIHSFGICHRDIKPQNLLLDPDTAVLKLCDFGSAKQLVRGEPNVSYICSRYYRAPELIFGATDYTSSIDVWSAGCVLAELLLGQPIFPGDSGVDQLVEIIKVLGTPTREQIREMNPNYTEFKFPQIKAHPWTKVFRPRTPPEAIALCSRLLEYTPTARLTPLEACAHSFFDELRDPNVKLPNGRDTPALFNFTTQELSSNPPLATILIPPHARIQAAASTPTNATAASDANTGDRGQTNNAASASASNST
Misshapen-like kinase 1, sequence (Q8N4C8 whole entry): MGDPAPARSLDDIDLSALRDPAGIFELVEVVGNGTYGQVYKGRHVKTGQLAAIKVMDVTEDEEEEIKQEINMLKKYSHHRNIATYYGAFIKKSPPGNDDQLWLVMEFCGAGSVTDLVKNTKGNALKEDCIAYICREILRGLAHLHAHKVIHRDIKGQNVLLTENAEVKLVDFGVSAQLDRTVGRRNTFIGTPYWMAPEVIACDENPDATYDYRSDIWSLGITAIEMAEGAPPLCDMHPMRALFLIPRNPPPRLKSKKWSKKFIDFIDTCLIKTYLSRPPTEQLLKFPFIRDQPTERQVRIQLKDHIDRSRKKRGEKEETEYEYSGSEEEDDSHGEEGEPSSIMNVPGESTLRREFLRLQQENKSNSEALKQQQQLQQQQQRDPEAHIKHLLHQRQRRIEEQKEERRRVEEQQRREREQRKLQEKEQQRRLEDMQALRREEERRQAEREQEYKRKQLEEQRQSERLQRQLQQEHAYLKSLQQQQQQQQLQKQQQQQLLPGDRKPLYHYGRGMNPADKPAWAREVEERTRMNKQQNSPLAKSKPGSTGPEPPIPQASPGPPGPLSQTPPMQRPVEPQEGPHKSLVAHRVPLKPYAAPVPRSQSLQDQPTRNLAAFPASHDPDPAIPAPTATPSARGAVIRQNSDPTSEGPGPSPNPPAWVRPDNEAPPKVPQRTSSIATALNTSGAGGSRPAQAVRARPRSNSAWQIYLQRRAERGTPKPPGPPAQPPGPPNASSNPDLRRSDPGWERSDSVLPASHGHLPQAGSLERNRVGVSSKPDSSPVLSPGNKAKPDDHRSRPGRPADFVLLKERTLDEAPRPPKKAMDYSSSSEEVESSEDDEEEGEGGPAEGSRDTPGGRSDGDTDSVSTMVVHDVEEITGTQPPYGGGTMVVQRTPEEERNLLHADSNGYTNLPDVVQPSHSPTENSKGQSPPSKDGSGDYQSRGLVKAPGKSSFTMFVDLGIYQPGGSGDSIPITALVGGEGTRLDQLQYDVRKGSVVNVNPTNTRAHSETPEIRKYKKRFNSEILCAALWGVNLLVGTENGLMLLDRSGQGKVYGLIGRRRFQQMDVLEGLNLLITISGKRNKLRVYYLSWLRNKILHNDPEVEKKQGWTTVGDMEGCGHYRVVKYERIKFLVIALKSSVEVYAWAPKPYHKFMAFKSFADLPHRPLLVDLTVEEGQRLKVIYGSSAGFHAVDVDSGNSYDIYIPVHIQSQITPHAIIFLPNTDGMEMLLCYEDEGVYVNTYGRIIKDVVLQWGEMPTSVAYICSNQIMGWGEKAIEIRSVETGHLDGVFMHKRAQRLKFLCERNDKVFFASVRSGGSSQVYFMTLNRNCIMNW
Serine/threonine-protein kinase PLK1, sequence (P53350 whole entry): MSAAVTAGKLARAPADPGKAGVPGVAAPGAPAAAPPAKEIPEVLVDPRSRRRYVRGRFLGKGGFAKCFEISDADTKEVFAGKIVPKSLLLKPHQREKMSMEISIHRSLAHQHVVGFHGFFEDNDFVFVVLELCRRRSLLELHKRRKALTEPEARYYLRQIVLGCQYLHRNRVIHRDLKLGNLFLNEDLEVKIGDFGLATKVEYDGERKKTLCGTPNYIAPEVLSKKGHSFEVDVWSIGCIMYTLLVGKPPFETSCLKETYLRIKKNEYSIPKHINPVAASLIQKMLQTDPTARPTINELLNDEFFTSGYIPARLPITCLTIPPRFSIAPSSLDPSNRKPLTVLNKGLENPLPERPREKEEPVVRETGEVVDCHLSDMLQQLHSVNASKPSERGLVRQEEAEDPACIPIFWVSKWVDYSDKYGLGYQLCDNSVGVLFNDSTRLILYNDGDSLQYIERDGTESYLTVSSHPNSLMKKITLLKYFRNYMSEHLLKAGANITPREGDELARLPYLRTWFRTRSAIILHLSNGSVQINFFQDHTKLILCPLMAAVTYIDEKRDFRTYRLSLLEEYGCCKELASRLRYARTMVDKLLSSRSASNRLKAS

Kd (Ephrin type-A receptor 1)	Kd [1]	Kd [2]	Kd [3]	Kd (Misshapen-like kinase 1)	Structure (SMILES)
> 30 µM (inactive)	> 30 µM (inactive)	> 30 µM (inactive)			COc1cccc(Nc2ncnn3ccc(CN4CC[C@@H](N)[C@H](O)C4)c23)c1 [BMS-690514]
> 30 µM (inactive)		> 30 µM (inactive)			CCN1CCN(Cc2ccc(Nc3ncc(F)c(-c4cc(F)c5nc(C)n(C(C)C)c5c4)n3)nc2)CC1 [ABEMACICLIB]
> 30 µM (inactive)	> 30 µM (inactive)	> 30 µM (inactive)	> 30 µM (inactive)		Cc1cc(C(=O)Nc2cc(Oc3ccc4nc(NC(=O)C5CC5)cn4n3)ccc2C)n(C)n1 [TAK-593]
	> 30 µM (inactive)				C=CC(=O)Nc1cccc(Nc2nc(Nc3ccc(N4CCN(C(C)=O)CC4)cc3OC)ncc2C(F)(F)F)c1 [ROCILETINIB]
> 30 µM (inactive)	> 30 µM (inactive)	> 30 µM (inactive)	> 30 µM (inactive)		COc1cc(Nc2ncc(F)c(Nc3ccc4c(n3)N(COP(=O)(O)O)C(=O)C(C)(C)O4)n2)cc(OC)c1OC [FOSTAMATINIB]
		> 30 µM (inactive)		> 30 µM (inactive)	CCOc1ccn(-c2ccc(F)cc2)c(=O)c1C(=O)Nc1ccc(Oc2ccnc(N)c2Cl)c(F)c1 [BMS-777607]
> 30 µM (inactive)	> 30 µM (inactive)	> 30 µM (inactive)	> 30 µM (inactive)	> 30 µM (inactive)	COc1ccc(-c2ccc3ncc4c(c3c2)n(-c2ccc(N3CCNCC3)c(C(F)(F)F)c2)c(=O)n4C)cn1 [BGT-226 FREE BASE]
			0.672 µM (active)	> 30 µM (inactive)	O=C(O)c1ccc2c(c1)nc(Nc1cccc(Cl)c1)c1ccncc12 [SILMITASERTIB]
	> 30 µM (inactive)	> 30 µM (inactive)			COc1cc2ncnc(Nc3ccc(F)c(Cl)c3)c2cc1NC(=O)/C=C/CN1CCCCC1 [DACOMITINIB ANHYDROUS]

Structure (SMILES)	Kd (Ephrin type-A receptor 1)	Kd [1]	Kd [2]	Kd [3]	Kd (Misshapen-like kinase 1)
Cc1c(NC(=O)OC[C@@H]2COCCN2)cn2ncnc(Nc3ccc4c(cnn4Cc4cccc(F)c4)c3)c12 [AC-480]	> 30 µM (inactive)	> 30 µM (inactive)	> 30 µM (inactive)	> 30 µM (inactive)	
CC(C)CC(=O)Nc1[nH]nc2c1CN(C(=O)C1CCN(C)CC1)C2(C)C [PHA-793887]	> 30 µM (inactive)	0.012 µM (active)	> 30 µM (inactive)	> 30 µM (inactive)	
CNC(=O)c1ccc(Nc2ncc(C(F)(F)F)c(NCc3nccnc3N(C)S(C)(=O)=O)n2)cc1 [DEFACTINIB]	> 30 µM (inactive)	1.32 µM (active)	> 30 µM (inactive)		
C=CCN(/C=C1/C(=O)O[C@H](COC)[C@@]2(C)C1=C(O)C(=O)C1=C2[C@H](OC(C)=O)C[C@]2(C)C(=O)CC[C@@H]12)CC=C [SONOLISIB]	> 30 µM (inactive)	> 30 µM (inactive)			
